Reference: article PMC8622152, “Expression Profile and Ligand Screening of a Putative Odorant-Binding Protein, AcerOBP6, from the Asian Honeybee” (Insects, 2021)
Entries after “also recorded” stand apart in the source; their conditions may differ.

System: antennae of forager bees
Test: EAG assay based on RNAi (dsOBP6 feeding)
Design: species or system Apis cerana cerana
Conditions: 48 h after feeding dsOBP6-2 dsRNA; p < 0.05
Experimental: The plasmid extracted in Section 2.3 was used as a template to generate 2 dsRNA fragments of AcerOBP6. Meanwhile, dsRNA was synthesized using a T7 RiboMAX™ Express RNAi System (Promega, Madison, WI, USA); the primers used for dsRNA generating are listed in Table S1. The final concentration of dsRNA generation was diluted to 2.5 μg/μL. The concentration and integrity of dsRNA were determined using NanoDrop and agarose gel electrophoresis (1%). Forager bees were collected and fed with AcerOBP6 dsRNA (8 μg for each bee), and then maintained in an artificial climate incubator (65–75% RH; 28 ± 0.4 °C). At the same time, the GFP dsRNA and 30% sugar were employed as the control groups. Each experiment group included 30 bees, and 3 biological repeats were performed. At times of 24, 48, and 96 h after feeding, the RNAi effects were verified by qRT-PCR.
The antennae of forager bees were dissected from the bottom and immediately fixed to both sides of a two-pronged electrode using Spectra 360 electrode gel (Parker Laboratories Inc., Fairfield, NJ, USA). The odorants were dissolved in liquid paraffin to final concentrations of 300 μg/μL, and liquid paraffin was adopted as a blank control. A filter paper strip (3 cm × 1cm) filled with 10 μL tested solution was prepared and put into the tube of Pasteur Pipette, which was connected with the gas feeder equipment. The stimulation time of each odor was 0.5 s and the interval was 30 s. Three technical repetitions were carried out, and ten antennae of female adults were tested for each compound. Finally, the EAGPro software (Syntech) was used to analyze the EAG response recordings.

Row | Compound | change of EAG response in dsOBP6 group versus controls
1 | C=CC(C)(O)CCC=C(C)C (centres unmarked) [Linalool] | significantly decreased
2 | C=CC(=C)CCC=C(C)C [Myrcene] | significantly decreased
3 | CCCCCCCCCO [1-Nonanol] | significantly decreased
4 | C=C/C(C)=C/CC=C(C)C [β-ocimene] | significantly decreased
5 | CC12CCC(CC1)C(C)(C)O2 [Eucalyptol] | significantly decreased
6 | CCCCCC(C)=O [2-Heptanone] | significantly decreased; also recorded: significant change
7 | (+) -Cinene | significantly decreased
8 | CCCCCCOC(C)=O [hexyl acetate] | significantly decreased

Same assay, conditions: odorant 300 µg/µL in liquid paraffin, 10 µL on filter paper, 0.5 s stimulation

Row | Compound | EAG response of worker bee antennae
9 | CCCCCC(C)=O [2-Heptanone] | strongest response; also recorded: strong EAG responses

Biological target: AcerOBP6 (Apis cerana cerana, UniProt A0A2A3ES84)
Sequence (A0A2A3ES84 entry or part of it): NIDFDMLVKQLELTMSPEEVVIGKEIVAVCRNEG
Test: not given
Format: binding
Conditions: Ki = [IC50]/(1 + [1-NPN]/K1-NPN); AcerOBP6 1 µM, 1-NPN 1 µM; listed as ethyl-trans-cinnamate; read-out: Ki (dissociation constant)
Experimental: Afterwards, the fluorescent probe N-phenyl-1-naphthylamine (1–NPN) was dissolved in methanol to yield a 1 mM stock solution. […] The binding constant of 1-NPN to AcerOBP6 (K1–NPN) was calculated using Scatchard plots of the binding data in GraphPad Prism 8.0.
Taking 1–NPN as the fluorescent reporter, we measured the binding affinity of each odorant by competitive binding assays using. All the 33 ligands (listed in Table S2) were dissolved in spectrally pure grade methanol. We titrated the odorants in a solution containing AcerOBP6 protein (1 μM) and 1–NPN (1 μM) to the final concentrations of 1–10 μM, respectively.

Row | Ki | Compound
10 | 3.7 µM | CCOC(=O)/C=C/c1ccccc1 [Ethyl-trans-cinnamate]

Same assay, conditions: Ki = [IC50]/(1 + [1-NPN]/K1-NPN); AcerOBP6 1 µM, 1-NPN 1 µM; read-out: Ki (dissociation constant)

Row | Compound | Ki
11 | C=C/C(C)=C/CC=C(C)C [β-ocimene] | 5.27 µM
12 | -Ionone | 5.18 µM
13 | -Pinene | 6.35 µM
14 | (+) -Cinene | 5.26 µM
15 | CCOC(=O)/C=C/c1ccccc1 [Ethyl-trans-cinnamate] | 3.74 µM

Same assay, conditions: competitive binding with 1-NPN, ligand up to 10 µM

Row | Compound | binding affinity with AcerOBP6 (in words)
16 | C=C/C(C)=C/C/C=C(\C)CCC=C(C)C [α-farnesene] | could not bind or had a weak binding affinity
17 | CC(=O)OCCC(C)C [Isoamyl acetate] | could not bind or had a weak binding affinity
18 | C/C1=C\CC/C(C)=C/CC(C)(C)/C=C/C1 [α-caryophllene] | could not bind or had a weak binding affinity
19 | CCCCCCCC/C=C\CCCCCCCC(=O)OC [Methyl oleate] | could not bind or had a weak binding affinity
20 | CCCCCCCCCCCCCCCC(=O)OC [Methyl palmitate] | could not bind or had a weak binding affinity
21 | CCCCCCCC/C=C\CCCCCCCC(=O)OCC [Ethyl oleate] | could not bind or had a weak binding affinity
22 | CCOC(=O)/C=C/c1ccccc1 [Ethyl cinnamate] | could not bind or had a weak binding affinity
23 | CCCCCCCCCCCCCCCCCC(=O)OC [Methyl stearate] | could not bind or had a weak binding affinity
24 | CC/C=C\C/C=C\C/C=C\CCCCCCCC(=O)OC [Methyl linolenate] | could not bind or had a weak binding affinity
25 | CC/C=C\C/C=C\C/C=C\CCCCCCCC(=O)OCC [α-ethyl linolenic] | could not bind or had a weak binding affinity
26 | CCCCC/C=C\C/C=C\CCCCCCCC(=O)OCC [Ethyl linoleate] | could not bind or had a weak binding affinity

Same assay, conditions: concentration of ligand displacing 50% 1-NPN; AcerOBP6 1 µM, 1-NPN 1 µM, ligand 1-10 µM; short dash: not possible to calculate the IC50 value

Row | IC50 | Compound
27 | > 10 µM | C=C/C(C)=C/C/C=C(\C)CCC=C(C)C [α-farnesene]
28 | 5.54 µM | C=C/C(C)=C/CC=C(C)C [β-ocimene]
29 | > 10 µM | C/C1=C\CC/C(C)=C/CC(C)(C)/C=C/C1 [α-caryophllene]
30 | > 10 µM | CCCCCCCCCCCCCCCC(=O)OC [Methyl palmitate]
31 | 3.93 µM | CCOC(=O)/C=C/c1ccccc1 [Ethyl-trans-cinnamate]

Row | Compound | IC50
32 | -Ionone | 5.45 µM
33 | -Pinene | 6.67 µM
34 | (+) -Cinene | 5.53 µM
35 | CC/C=C\C/C=C\C/C=C\CCCCCCCC(=O)OCC [α-ethyl linolenic] | > 10 µM
